According to ChEMBL document CHEMBL5113491, “Discovery of N-benzylarylamide derivatives as novel tubulin polymerization inhibitors capable of activating the Hippo pathway” (Eur J Med Chem, 2022):
Activity calls are given as the source filed them. The rule behind the calls is not given here.

Key:
KYSE-450 = assay: Antiproliferative activity against human KYSE-450 cells assessed as inhibition of cell growth measured after 48 hrs by MTT assay; format: functional, cell-based; details: KYSE-450, 48 h
HCT-116 = assay: Antiproliferative activity against human HCT-116 cells assessed as inhibition of cell growth measured after 48 hrs by MTT assay; format: functional, cell-based; details: HCT-116, 48 h
MGC-803 = assay: Antiproliferative activity against human MGC-803 cells assessed as inhibition of cell growth measured after 48 hrs by MTT assay; format: functional, cell-based; details: MGC-803, 48 h
Sus scrofa = species on record: Sus scrofa; assay: Inhibition of porcine brain microtubule polymerization at 3 umol/L measured after 5 sec by fluorescence based assay; details: dose 3.0 µmol/L
[1] = Inhibition of porcine brain microtubule polymerization measured after 1 hrs by fluorescence based assay; set-up: species or system Sus scrofa

## COc1ccc(CN(C(=O)C2CC2)c2cc(OC)c(OC)c(OC)c2)cc1O
KYSE-450
  IC50: 80 nM
HCT-116
  IC50: 49 nM
MGC-803
  IC50: 59 nM

## COc1ccc(CN(C(=O)/C=C/CBr)c2cc(OC)c(OC)c(OC)c2)cc1O
KYSE-450
  IC50: 100 nM
HCT-116
  IC50: 59 nM
MGC-803
  IC50: 71 nM

## COc1ccc(NCc2cc(OC)c(OC)c(OC)c2)cc1O
KYSE-450
  IC50: 4180 nM
Sus scrofa
  inhibition: Active
HCT-116
  IC50: 5230 nM
MGC-803
  IC50: 9590 nM

## C/C=C/C(=O)N(Cc1cc(OC)c(OC)c(OC)c1)c1ccc(OC)c(O)c1
KYSE-450
  IC50: 9160 nM
HCT-116
  IC50: 8450 nM
MGC-803
  IC50: 6150 nM

## COc1cc(NCc2ccc(Br)cc2)cc(OC)c1OC
KYSE-450
  IC50: > 80000 nM
HCT-116
  IC50: > 80000 nM
MGC-803
  IC50: > 80000 nM

## COc1ccc(CNc2cc(OC)c(OC)c(OC)c2)cc1[N+](=O)[O-]
KYSE-450
  IC50: 16800 nM
HCT-116
  IC50: 18200 nM
MGC-803
  IC50: 19400 nM

## C=CC(=O)N(Cc1ccc(OC)c(O)c1)c1cc(OC)c(OC)c(OC)c1
KYSE-450
  IC50: 160 nM
HCT-116
  IC50: 98 nM
MGC-803
  IC50: 62 nM

## CCC(=O)N(Cc1ccc(OC)c(O)c1)c1cc(OC)c(OC)c(OC)c1
KYSE-450
  IC50: 98 nM
HCT-116
  IC50: 61 nM
MGC-803
  IC50: 50 nM

## COc1ccc(CN(C(=O)C[Se]C#N)c2cc(OC)c(OC)c(OC)c2)cc1O
KYSE-450
  IC50: 280 nM
HCT-116
  IC50: 310 nM
MGC-803
  IC50: 270 nM

## COCC(=O)N(Cc1ccc(OC)c(O)c1)c1cc(OC)c(OC)c(OC)c1
KYSE-450
  IC50: 460 nM
HCT-116
  IC50: 230 nM
MGC-803
  IC50: 79 nM

## COc1ccc(/C=C\c2cc(OC)c(OC)c(OC)c2)cc1O [COMBRETASTATIN A4]
[1]
  IC50: 6710 nM
KYSE-450
  IC50: 12 nM
HCT-116
  IC50: 10 nM
MGC-803
  IC50: 8 nM

## COc1cc(NCc2cccc(O)c2)cc(OC)c1OC
KYSE-450
  IC50: 71300 nM
HCT-116
  IC50: 67700 nM
MGC-803
  IC50: 57600 nM

## C/C=C/C(=O)N(Cc1ccc(OC)c(Cl)c1)c1cc(OC)c(OC)c(OC)c1
KYSE-450
  IC50: 10100 nM
HCT-116
  IC50: 1420 nM
MGC-803
  IC50: 7100 nM

## COc1ccc(CNc2cc(OC)c(OC)c(OC)c2)cc1C
KYSE-450
  IC50: 73800 nM
HCT-116
  IC50: 60800 nM
MGC-803
  IC50: 56800 nM

## C/C=C/C(=O)N(Cc1ccc(OC)cc1)c1cc(OC)c(OC)c(OC)c1
KYSE-450
  IC50: 420 nM
HCT-116
  IC50: 500 nM
MGC-803
  IC50: 450 nM

## COc1cc(NCc2ccccc2)cc(OC)c1OC
KYSE-450
  IC50: > 80000 nM
HCT-116
  IC50: > 80000 nM
MGC-803
  IC50: > 80000 nM

## C/C=C/C(=O)N(Cc1ccc(OC)c(OC)c1)c1cc(OC)c(OC)c(OC)c1
KYSE-450
  IC50: 39100 nM
HCT-116
  IC50: 32800 nM
MGC-803
  IC50: 20100 nM

## COc1cc(NCc2ccc(Cl)cc2)cc(OC)c1OC
KYSE-450
  IC50: > 80000 nM
HCT-116
  IC50: > 80000 nM
MGC-803
  IC50: > 80000 nM

## C/C=C/C(=O)N(Cc1ccc(OC)c([N+](=O)[O-])c1)c1cc(OC)c(OC)c(OC)c1
KYSE-450
  IC50: 510 nM
HCT-116
  IC50: 670 nM
MGC-803
  IC50: 590 nM

## C=C(C)C(=O)N(Cc1ccc(OC)c(O)c1)c1cc(OC)c(OC)c(OC)c1
KYSE-450
  IC50: 200 nM
HCT-116
  IC50: 200 nM
MGC-803
  IC50: 390 nM

## COc1ccc(CNc2cc(OC)c(OC)c(OC)c2)cc1Cl
KYSE-450
  IC50: 47800 nM
HCT-116
  IC50: 41700 nM
MGC-803
  IC50: 46200 nM

## COc1ccc(CNc2cc(OC)c(OC)c(OC)c2)cc1OC
KYSE-450
  IC50: 57200 nM
HCT-116
  IC50: 50800 nM
MGC-803
  IC50: 46200 nM

## COc1cc2c(c(OC)c1OC)-c1ccc(OC)c(=O)cc1[C@@H](NC(C)=O)CC2 [COLCHICINE]
KYSE-450
  IC50: 77 nM
HCT-116
  IC50: 81 nM
MGC-803
  IC50: 62 nM

## CC/C=C/C(=O)N(Cc1ccc(OC)c(O)c1)c1cc(OC)c(OC)c(OC)c1
KYSE-450
  IC50: 72 nM
HCT-116
  IC50: 63 nM
MGC-803
  IC50: 58 nM

## COc1ccc(CN(C(=O)CCl)c2cc(OC)c(OC)c(OC)c2)cc1O
KYSE-450
  IC50: 210 nM
HCT-116
  IC50: 250 nM
MGC-803
  IC50: 84 nM

## C/C=C/C(=O)N(Cc1cccc(O)c1)c1cc(OC)c(OC)c(OC)c1
KYSE-450
  IC50: 14700 nM
HCT-116
  IC50: 6700 nM
MGC-803
  IC50: 14100 nM

## COc1ccc(CN(C(C)=O)c2cc(OC)c(OC)c(OC)c2)cc1O
KYSE-450
  IC50: 160 nM
HCT-116
  IC50: 270 nM
MGC-803
  IC50: 79 nM

## C/C=C/C(=O)N(Cc1ccc(OC)c(F)c1)c1cc(OC)c(OC)c(OC)c1
KYSE-450
  IC50: 1400 nM
HCT-116
  IC50: 1160 nM
MGC-803
  IC50: 1650 nM

## COc1ccc(CN(C(=O)C(C)Br)c2cc(OC)c(OC)c(OC)c2)cc1O (centres undefined)
KYSE-450
  IC50: 160 nM
HCT-116
  IC50: 140 nM
MGC-803
  IC50: 120 nM

## COc1ccc(CNc2cc(OC)c(OC)c(OC)c2)cc1F
KYSE-450
  IC50: 46200 nM
HCT-116
  IC50: 32200 nM
MGC-803
  IC50: 39700 nM

## COc1ccc(CN(C(=O)CO)c2cc(OC)c(OC)c(OC)c2)cc1O
KYSE-450
  IC50: 370 nM
HCT-116
  IC50: 520 nM
MGC-803
  IC50: 160 nM

## COc1ccc(CNc2cc(OC)c(OC)c(OC)c2)cc1N
KYSE-450
  IC50: 2210 nM
HCT-116
  IC50: 8270 nM
MGC-803
  IC50: 7970 nM

## C#CC(=O)N(Cc1ccc(OC)c(O)c1)c1cc(OC)c(OC)c(OC)c1
KYSE-450
  IC50: 570 nM
HCT-116
  IC50: 310 nM
MGC-803
  IC50: 170 nM

## COc1ccc(N(Cc2cc(OC)c(OC)c(OC)c2)C(=O)CCl)cc1O
KYSE-450
  IC50: 29800 nM
HCT-116
  IC50: 22500 nM
MGC-803
  IC50: 24500 nM

## COc1ccc(CN(C(=O)C(C)C)c2cc(OC)c(OC)c(OC)c2)cc1O
KYSE-450
  IC50: 390 nM
HCT-116
  IC50: 310 nM
MGC-803
  IC50: 210 nM

## COc1ccc(CN(C(=O)C=C(C)C)c2cc(OC)c(OC)c(OC)c2)cc1O
KYSE-450
  IC50: 280 nM
HCT-116
  IC50: 290 nM
MGC-803
  IC50: 320 nM

## COc1ccc(CNc2cc(OC)c(OC)c(OC)c2)cc1O
KYSE-450
  IC50: 1400 nM
Sus scrofa
  inhibition: Active
HCT-116
  IC50: 3220 nM
MGC-803
  IC50: 1490 nM

## COc1ccc(CN(C(=O)CCCCCl)c2cc(OC)c(OC)c(OC)c2)cc1O
KYSE-450
  IC50: 770 nM
HCT-116
  IC50: 220 nM
MGC-803
  IC50: 540 nM

## C/C=C/C(=O)N(Cc1ccc(OC)c(C)c1)c1cc(OC)c(OC)c(OC)c1
KYSE-450
  IC50: 32900 nM
HCT-116
  IC50: 23500 nM
MGC-803
  IC50: 14500 nM

## COc1ccc(CNc2cc(OC)c(OC)c(OC)c2)cc1
KYSE-450
  IC50: 4890 nM
HCT-116
  IC50: 18400 nM
MGC-803
  IC50: 11400 nM

## COC(=O)c1cc(CNc2cc(OC)c(OC)c(OC)c2)ccc1OC
KYSE-450
  IC50: 41100 nM
HCT-116
  IC50: 38100 nM
MGC-803
  IC50: 49600 nM

## C/C=C/C(=O)N(Cc1ccc(OC)c(N)c1)c1cc(OC)c(OC)c(OC)c1
KYSE-450
  IC50: 310 nM
HCT-116
  IC50: 300 nM
MGC-803
  IC50: 150 nM

## COc1ccc(CN(C(=O)CN=[N+]=[N-])c2cc(OC)c(OC)c(OC)c2)cc1O
KYSE-450
  IC50: 160 nM
HCT-116
  IC50: 410 nM
MGC-803
  IC50: 120 nM

## COc1cc(NCc2ccc(C)cc2)cc(OC)c1OC
KYSE-450
  IC50: > 80000 nM
HCT-116
  IC50: > 80000 nM
MGC-803
  IC50: > 80000 nM

## COc1ccc(N(Cc2cc(OC)c(OC)c(OC)c2)C(=O)CN=[N+]=[N-])cc1O
KYSE-450
  IC50: 26100 nM
HCT-116
  IC50: 38800 nM
MGC-803
  IC50: 22400 nM

## CCC/C=C/C(=O)N(Cc1ccc(OC)c(O)c1)c1cc(OC)c(OC)c(OC)c1
KYSE-450
  IC50: 57 nM
HCT-116
  IC50: 95 nM
MGC-803
  IC50: 70 nM

## COc1ccc(CN(C(=O)CCCl)c2cc(OC)c(OC)c(OC)c2)cc1O
KYSE-450
  IC50: 110 nM
HCT-116
  IC50: 150 nM
MGC-803
  IC50: 140 nM

## COc1ccc(CN(C(=O)CBr)c2cc(OC)c(OC)c(OC)c2)cc1O
KYSE-450
  IC50: 120 nM
HCT-116
  IC50: 68 nM
MGC-803
  IC50: 140 nM

## COc1ccc(CNc2cc(OC)c(OC)c(OC)c2)cc1Br
KYSE-450
  IC50: 39800 nM
HCT-116
  IC50: 48100 nM
MGC-803
  IC50: 29400 nM

## C/C=C/C=C/C(=O)N(Cc1ccc(OC)c(O)c1)c1cc(OC)c(OC)c(OC)c1
KYSE-450
  IC50: 180 nM
HCT-116
  IC50: 180 nM
MGC-803
  IC50: 140 nM

## C/C=C/C(=O)N(Cc1ccc(OC)c(Br)c1)c1cc(OC)c(OC)c(OC)c1
KYSE-450
  IC50: 10500 nM
HCT-116
  IC50: 2800 nM
MGC-803
  IC50: 6430 nM

## CCCCC(=O)N(Cc1ccc(OC)c(O)c1)c1cc(OC)c(OC)c(OC)c1
KYSE-450
  IC50: 300 nM
HCT-116
  IC50: 170 nM
MGC-803
  IC50: 66 nM
